Assay results from patent publication US20260206761A1, “HETEROARYL-TRIAZOLE COMPOUNDS AS PESTICIDES” (Bayer Aktiengesellschaft, priority 2019, published 2026).

Key:
Assay type in all cases: in vivo
[1] = test system: cattle ticks (Rhipicephalus microplus) strain Parkhurst, SP-resistant; assay: Rhipicephalus (Boophilus) microplus dip test; settings: 168 h, application rate 100 ppm, egg deposition after 7 days, read-out: activity (efficacy: infertile eggs)
Protocol: Rhipicephalus (Boophilus) microplus—Din Test
Test animal: cattle ticks (Rhipicephalus microplus) strain Parkhurst, SP-resistant
Solvent: dimethyl sulfoxide
To produce a suitable preparation of active compound, 10 mg of active compound are dissolved in 0.5 mL solvent, and the concentrate is diluted with water to the desired concentration.
This compound solution is pipetted into tubes. 8-10 engorged, adult, female cattle ticks (Rhipicephalus microplus) are placed in perforated tubes. These tubes are immersed in the aqueous compound solution until the ticks are completely moistened. After the liquid has drained off, the ticks are transferred to a filter paper in a plastic tray and stored in a climate chamber.
After 7 days egg deposition of fertile eggs is monitored. Eggs where fertility is not visible are stored in a climate chamber till hatching after about 42 days. An efficacy of 100% means all eggs are infertile; 0% means all eggs are fertile.

[2] = test system: Rhipicephalus microplus larvae (strain Parkhurst, resistant against synthetic pyrethroids); assay: Rhipicephalus (Boophilus) microplus in-vitro contact test, larval cattle tick; settings: after 48 hours, read-out: activity (efficacy: larvae dead or moribund); for pest or weed control at 100 g/ha: application rate 1 pg/cm^2 (=100 g/ha); for pest or weed control at 500 g/ha: application rate 5 pg/cm^2 (=500 g/ha)
In short: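 Larvae (20-50 per tube) exposed to dry compound film on glass tube walls, 5 μg/cm^2 at 900 ppm, applied from acetone. After 48 h at 27° C./85% RH, tubes tapped and negative geotaxis scored; efficacy as percent dead or moribund larvae.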

[3] = test system: larvae of the southern green stink bug (Nezara viridula); assay: Nezara viridula spray test; settings: 96 h, after 4 days; for mortality at 100 g/ha: application rate 100 g/ha; for mortality at 500 g/ha: application rate 500 g/ha
In short: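 Larva-infested barley (Hordeum vulgare) plants received a spray of test solution prepared from an acetone/DMF concentrate diluted in emulsifier-containing water (1000 ppm). Percent kill read 4 days later; 0% means no stink bugs dead.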

[4] = test system: brown planthopper (Nilaparvata lugens); assay: Nilaparvata lugens spray test; settings: 96 h, after 4 days; for mortality at 100 g/ha: application rate 100 g/ha; for mortality at 500 g/ha: application rate 500 g/ha
In short: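 Compound dissolved in acetone/dimethylformamide and diluted in water with 1000 ppm alkylarylpolyglycol ether emulsifier. Rice plants sprayed at the test concentration, then infested with brown planthopper; % mortality read after 4 days (100% = all killed, 0% = none).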

[5] = test system: Culex quinquefasciatus strain P00; assay: Culex quinquefasciatus test (CULXFA surface treatment & contact assay); settings: 24 hours after contact, read-out: efficacy (mortality); for mortality at 4 mg/m2: surface concentration 4 mg/m^2, exposure 30 minutes; for mortality at 20 mg/m2: surface concentration 20 mg/m^2, exposure 30 minutes
In short: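 Compound in acetone (2 mg/ml) with 2000 ppm rapeseed oil methyl ester, dried onto glazed tile. Adult mosquitoes exposed to the treated surface for 30 min. Percent mortality scored 24 h after contact.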

[6] = test system: Anopheles funestus strain FUMOZ-R; assay: Anopheles funestus test (ANPHFU surface treatment & contact assay); settings: 24 hours after contact, read-out: efficacy (mortality); for mortality at 4 mg/m2: surface concentration 4 mg/m^2, exposure 30 minutes; for mortality at 20 mg/m2: surface concentration 20 mg/m^2, exposure 30 minutes
In short: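 Compound dissolved in acetone at 2 mg/ml with 2000 ppm RME, pipetted onto glazed tile; acetone evaporated. Adult FUMOZ-R mosquitoes exposed to dried surface for 30 min. Percent mortality scored 24 h after contact.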

[7] = test system: Musca domestica strain WHO-N; assay: Musca domestica test (MUSCDO surface treatment & contact assay); settings: 24 hours after contact, read-out: efficacy (mortality); for mortality at 4 mg/m2: surface concentration 4 mg/m^2, exposure 30 minutes; for mortality at 20 mg/m2: surface concentration 20 mg/m^2, exposure 30 minutes
In short: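 Compound dissolved at 2 mg/ml in acetone with 2000 ppm rapeseed oil methyl ester and pipetted onto a glazed tile. After the acetone evaporated, adult WHO-N flies were exposed to the dried surface for 30 min, with % mortality scored 24 h after contact.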

[8] = test system: adult brown dog ticks (Rhipicephalus sanguineus); assay: Rhipicephalus sanguineus in-vitro contact test, adult brown dog ticks; settings: after 48 hours, read-out: activity (efficacy: ticks dead or moribund); for pest or weed control at 100 g/ha: application rate 1 pg/cm^2 (=100 g/ha); for pest or weed control at 5 µg/cm2, 500 g/ha: application rate 5 μg/cm^2 (=500 g/ha)
In short: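 Efficacy is % of adult ticks dead or moribund 48 h after confinement at room temperature in tubes wall-coated from acetone (5 μg/cm² at 900 ppm). Scoring by heat challenge at 45-50 °C up to 5 min; immotile or uncoordinated ticks failing to climb count as affected.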

SMILES	pest or weed control at 100 ppm [1]	pest or weed control at 100 g/ha [2]	mortality at 100 g/ha [3]	mortality at 500 g/ha [3]	mortality at 100 g/ha [4]	mortality at 500 g/ha [4]	mortality at 4 mg/m2 [5]	mortality at 20 mg/m2 [5]	pest or weed control at 500 g/ha [2]	mortality at 4 mg/m2 [6]	mortality at 20 mg/m2 [6]	mortality at 4 mg/m2 [7]	mortality at 20 mg/m2 [7]	pest or weed control at 100 g/ha [8]	pest or weed control at 5 µg/cm2, 500 g/ha [8]
C[C@H](NC(=O)c1cc(Cl)cc(S(C)(=O)=O)c1)c1nc(C2CC2)nn1-c1ccc(C#N)cn1 [I-4]	100%	90%	100%	100%											
C[C@H](NC(=O)c1cc(C#N)cc([S+](C)[O-])c1)c1ncnn1-c1ccc(C#N)cn1 (stereo partly shown) [II-12]		80%	100%	100%	100%	100%	80 to 100%	80 to 100%	100%	80 to 100%	80 to 100%				
C[C@H](NC(=O)c1cc(C(F)(F)F)cc(S(C)(=O)=O)c1)c1ncnn1-c1ncccn1 [II-13]	100%		100%	100%	100%	100%	80 to 100%		80%	80 to 100%		80 to 100%			
Cc1nc([C@H](C)NC(=O)c2cc(C(F)(F)F)n(C)n2)n(-c2ncccn2)n1 [II-25]		100%	100%	100%		90%	80 to 100%	80 to 100%	100%	80 to 100%	80 to 100%	80 to 100%	80 to 100%	100%	100%
C[C@H](NC(=O)c1cc(Cl)cc(S(=O)(=O)C(F)F)c1)c1ncnn1-c1ncccn1 [II-34]		100%	100%	100%	100%	100%	80 to 100%	80 to 100%	90%	80 to 100%	80 to 100%		80 to 100%	100%	100%
Cc1nc([C@H](C)NC(=O)c2cc(OC(F)(F)F)cc(C3CC3)c2)n(-c2ccc(C#N)cn2)n1 [II-39]	100%	100%						80 to 100%	100%			80 to 100%	80 to 100%	100%	100%
C[C@H](NC(=O)c1cc(Cl)cc(S(C)(=O)=O)c1)c1ncnn1-c1ncc(OC(F)F)cn1 [II-42]	100%	100%	100%				80 to 100%	80 to 100%	100%	80 to 100%	80 to 100%			100%	100%
C[C@H](NC(=O)c1cc(C(F)(F)F)cc(C2(C#N)CC2)c1)c1ncnn1-c1ccc(C#N)cn1 [II-47]	100%	100%	100%						100%	80 to 100%	80 to 100%	80 to 100%	80 to 100%	100%	100%
C[C@H](NC(=O)c1cc(C(F)(F)F)cc(C2(C#N)CC2)c1)c1ncnn1-c1ccc(Cl)cn1 [II-48]	100%	100%	100%						100%	80 to 100%	80 to 100%	80 to 100%	80 to 100%	100%	100%
Cc1nc([C@H](C)NC(=O)c2cc(C(F)(F)F)cc(C3(C#N)CC3)c2)n(-c2ccc(C#N)cn2)n1 [II-49]	100%	100%	100%		100%				100%		80 to 100%	80 to 100%	80 to 100%	100%	100%
